Reference: BigSolDB 2.1

O=C(O)c1cc(O)c(O)c(O)c1
solubility (mole fraction)
Settings	293.15 K	298.15 K	303.15 K	308.15 K	313.15 K	318.15 K
in methanol	0.0639	0.0672	0.07	0.0721	0.0755	0.0768
in water	0.00101	0.00135	0.00171	0.00227	0.00289	0.0038
